{
  "source": "paper PMC3978495",
  "about": "“Synthesis and Preliminary Evaluation of a 2-Oxoquinoline Carboxylic Acid Derivative for PET Imaging the Cannabinoid Type 2 Receptor” (Pharmaceuticals, 2014)",
  "key": {"human CB1 (hCB1)": {"target": "T1, human CB1 (hCB1) (Homo sapiens, UniProt P21554)", "T1 construct": "purchased PerkinElmer, Waltham, MA, USA; host or cells: CHO-K1 cells (stably transfected), membrane preparation", "T1 sequence (P21554 whole entry)": "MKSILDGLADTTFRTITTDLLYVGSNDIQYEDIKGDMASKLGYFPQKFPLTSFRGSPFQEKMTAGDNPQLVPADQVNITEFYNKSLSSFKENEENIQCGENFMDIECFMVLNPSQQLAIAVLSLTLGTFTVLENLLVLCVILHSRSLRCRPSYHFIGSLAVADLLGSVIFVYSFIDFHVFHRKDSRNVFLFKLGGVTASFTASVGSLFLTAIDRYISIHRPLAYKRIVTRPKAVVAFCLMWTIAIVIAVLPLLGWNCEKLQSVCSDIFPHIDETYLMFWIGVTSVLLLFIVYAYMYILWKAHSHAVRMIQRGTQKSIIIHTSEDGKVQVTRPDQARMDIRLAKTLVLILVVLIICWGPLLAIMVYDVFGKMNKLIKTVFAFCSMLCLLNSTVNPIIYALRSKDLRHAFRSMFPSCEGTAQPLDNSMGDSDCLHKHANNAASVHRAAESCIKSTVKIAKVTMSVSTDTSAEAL", "assay": "Competition binding assay with [3H]CP-55,940, membranes of CHO-K1 cells transfected with hCB1", "details": "three independent experiments, [3H]CP-55,940 1.4 nM, read-out: binding affinity (Ki) towards CB1", "description": "All samples were prepared in triplicates."}, "human CB2 (hCB2)": {"target": "human CB2 (hCB2) (Homo sapiens, UniProt P34972)", "sequence (P34972 whole entry)": "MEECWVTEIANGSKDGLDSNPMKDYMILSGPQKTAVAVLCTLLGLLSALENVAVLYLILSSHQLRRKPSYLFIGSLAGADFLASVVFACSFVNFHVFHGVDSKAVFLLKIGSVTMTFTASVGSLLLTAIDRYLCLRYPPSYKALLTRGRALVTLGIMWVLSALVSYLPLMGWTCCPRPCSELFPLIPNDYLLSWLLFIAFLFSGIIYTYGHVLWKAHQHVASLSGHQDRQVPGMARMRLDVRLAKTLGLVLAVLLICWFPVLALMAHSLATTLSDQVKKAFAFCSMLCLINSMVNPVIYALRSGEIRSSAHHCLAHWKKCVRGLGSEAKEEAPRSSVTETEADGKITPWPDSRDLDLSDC", "assay": "Competition binding assay with [3H]CP-55,940, membranes of CHO-K1 cells transfected with hCB2", "method": "Frozen membrane preparations from CHO-K1 cells transfected with human CB1 (hCB1) and CB2 (hCB2), respectively (PerkinElmer, Waltham, MA, USA), were thawed on ice and diluted to a final protein concentration of 1 µg/mL in assay buffer (50 mM TRIS/HCl, 1 mM EDTA (Applichem, Darmstadt, Germany), 3 mM MgCl2, pH 7.4, containing 0.05% bovine serum albumin, BSA). […] All samples were prepared in triplicates. After 90 min, 3 mL ice cold assay buffer was added and samples were immediately filtered through Whatman GF/C filters (pre-soaked in 0.05% polyethylenimine) and washed twice with 3 mL ice cold assay buffer."}, "hCB1": {"target": "hCB1", "details": "reported data; read-out: reported binding affinity towards CB1; cited from earlier work"}, "hCB2": {"target": "hCB2", "details": "reported data; read-out: reported binding affinity towards human CB2; cited from earlier work"}, "[1]": {"assay": "In vitro stability in rat plasma", "type": "in vitro ADME", "details": "37 °C, 40 min", "description": "(§1) To test the plasma stability of the radioligand, 10 µL (4 MBq) of [^11C]KP23 solution were added to phosphate buffer (300 µL, 4 mM NaH2PO4/Na2HPO4, 155 mM NaCl, pH 7.4), mouse and rat plasma (300 µL), respectively. The mixture was vortexed and four aliquots of 70 µL were incubated at 37 °C. Ice cold acetonitrile (100 µL) was added to stop the enzymatic reactions at different time points (0, 10, 20 and 40 min). After centrifugation (10,000 g, 3 min), the supernatant was passed through a filter (0.45 µm, Minisart SRP 4, Sartorius Stedim Biotech, Goettingen, Germany) and analyzed by UPLC."}, "[2]": {"assay": "In vitro stability in phosphate buffer (PBS)", "type": "physicochemical", "details": "PBS pH 7.4, 37 °C, 40 min", "description": "as §1"}, "[3]": {"target": "T2, CB2 in mouse spleen slices (Mus musculus, UniProt P47936)", "T2 construct": "performed on 20 µm tissue slices (rat/mouse spleen) adsorbed to SuperFrost Plus slides; from tissue; host or cells: mouse spleen slices (20 µm)", "T2 sequence (P47936 whole entry)": "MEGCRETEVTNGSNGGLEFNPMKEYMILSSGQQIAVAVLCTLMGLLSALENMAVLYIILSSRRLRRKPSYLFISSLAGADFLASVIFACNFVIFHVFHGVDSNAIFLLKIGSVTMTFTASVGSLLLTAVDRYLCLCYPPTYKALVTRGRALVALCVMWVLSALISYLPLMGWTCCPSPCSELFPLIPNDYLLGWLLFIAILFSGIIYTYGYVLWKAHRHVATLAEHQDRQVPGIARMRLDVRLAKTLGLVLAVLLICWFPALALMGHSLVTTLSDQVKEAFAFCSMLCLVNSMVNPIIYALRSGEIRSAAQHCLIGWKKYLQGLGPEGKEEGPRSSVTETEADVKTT", "assay": "In vitro autoradiography on mouse spleen slices", "type": "binding", "description": "(§2) In vitro autoradiography with [^11C]KP23 was performed on 20 µm tissue slices (rat/mouse spleen) adsorbed to SuperFrost Plus slides. Slices were thawed (10 min) on ice before pre-incubation with incubation buffer (50 mM TRIS/HCl, pH 7.4, containing 5% BSA) at 4 °C for 10 min. Excess solution was carefully removed and the tissue slices were dried in a ventilated hood for 10 min. Then slides were incubated with 0.6 or 0.2 nM [^11C]KP23 alone or together with specific CB2 agonist (GW405833, 1 µM) in incubation buffer. After incubation for 15 min at RT in a humid chamber, slides were washed twice with ice cold washing buffer (50 mM TRIS/HCl, pH 7.4, 1% BSA, 5% EtOH) for 2 min each and dipped twice in water. Dried slides were exposed to a phosphor imager plate for 30 min and the plate was scanned in a BAS5000 reader (Fujifilm, Dielsdorf, Switzerland)."}, "CB2 in rat spleen slices": {"target": "T3, CB2 in rat spleen slices (Rattus norvegicus, UniProt Q9QZN9)", "T3 construct": "performed on 20 µm tissue slices (rat/mouse spleen) adsorbed to SuperFrost Plus slides; from tissue; host or cells: rat spleen slices (20 µm)", "T3 sequence (Q9QZN9 1-360)": "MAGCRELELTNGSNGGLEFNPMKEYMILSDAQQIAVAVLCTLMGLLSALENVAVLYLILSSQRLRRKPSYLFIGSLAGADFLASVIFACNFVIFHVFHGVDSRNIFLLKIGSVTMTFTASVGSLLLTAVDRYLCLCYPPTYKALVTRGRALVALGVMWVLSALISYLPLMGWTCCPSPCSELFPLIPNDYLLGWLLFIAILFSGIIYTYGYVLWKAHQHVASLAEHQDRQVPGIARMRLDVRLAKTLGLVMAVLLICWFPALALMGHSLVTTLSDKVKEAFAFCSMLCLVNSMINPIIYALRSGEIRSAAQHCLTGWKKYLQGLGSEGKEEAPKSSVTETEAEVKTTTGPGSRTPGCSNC", "assay": "In vitro autoradiography on rat spleen slices", "type": "binding", "description": "as §2"}, "[4]": {"assay": "In vitro stability in mouse plasma", "type": "in vitro ADME", "details": "37 °C, 40 min", "description": "as §1"}, "[5]": {"assay": "In vivo dynamic PET imaging in Wistar rats", "parameters": "species or system rat", "description": "PET scanning was performed with the GE VISTA eXplore PET/CT tomograph (Sedecal, Madrid, Spain). The scanner is characterized by high sensitivity (absolute central point source sensitivity of 4% for the […] energy windows) and an axial field of view of 4.8 cm. Male Wistar rats (278 ± 2 g, n = 2) were immobilized by isoflurane inhalation and the tracer was injected into a tail vein on the tomographic bed. Tracer accumulation in the spleen or brain were recorded by dynamic one-bed position PET scans over 60 min starting with the injection of 13 respectively 40 MBq (0.05 to 0.15 nmol) of [^11C]KP23. PET data was reconstructed by 3-dimensional FORE/2-dimensional OSEM in user-defined time frames with a voxel size of 0.3875 × 0.3875 × 0.775 mm. Singles and random corrections but no attenuation correction were applied. Image files were evaluated with the software PMOD v3.4 (PMOD Technologies Inc., Zurich, Switzerland). Time activity curves (TACs) of brain regions were generated with the implemented rat brain region of interest (ROI) template and TACs of the abdominal region with the respective ROIs generated by the PMOD segmentation tool. Spleen, liver and background TACs were confirmed by analysis of manually drawn regions of interest. Standardized uptake values (SUV) were calculated as tissue activities (Bq/cm^3), normalized to the injected dose per body weight (Bq/g)."}, "[6]": {"details": "rat, in vivo, iv; for percentage of parent tracer radioactivity in blood plasma: Wistar", "description": "[^11C]KP23 was administered intravenously to a restrained Wistar rat (413 g) by tail vein injection (ca. 160 MBq). The animal was sacrificed by decapitation 30 min p.i. and blood and urine were collected. Whole blood was collected in heparin-coated tubes (BD Vacutainers, Plymouth, UK) and centrifuged at 5,000 g for 5 min, 4 °C. The proteins of the supernatant plasma and urine were precipitated by addition of an equal volume of acetonitrile and centrifuged at 5,000 g for another 5 min. The supernatants were filtered and analyzed by UPLC. For the determination of in vivo radiometabolites at 15 min p.i. blood samples were withdrawn from the tail vein opposite to the injection site."}},
  "note": "Read-outs that look alike come from different tables or passages of the source.",
  "data": [
    {"smiles": "CCCCOc1c(OC)ccc2cc(C(=O)NCC(F)c3ccccc3)c(=O)[nH]c12", "note": "(stereo not drawn) [KP23, 8-butoxy-N-(2-fluoro-2-phenylethyl)-7-methoxy-2-oxo-1,2-dihydroquinoline-3-carboxamide]", "values": [
      {"measurement": "Ki", "setting": "human CB1 (hCB1)", "result": "> 10000", "unit": "nM"},
      {"measurement": "Ki", "setting": "human CB2 (hCB2)", "result": "6.8 ± 5.8", "unit": "nM"},
      {"measurement": "Ki", "setting": "hCB1", "result": "> 10000", "unit": "nM"},
      {"measurement": "Ki", "setting": "hCB2", "result": "0.8 ± 0.3", "unit": "nM"}
    ]},
    {"smiles": "CCCCOc1c(O[11CH3])ccc2cc(C(=O)NCC(F)c3ccccc3)c(=O)[nH]c12", "note": "(stereo not drawn) [[^11C]KP23]", "values": [
      {"measurement": "plasma stability (radioactive degradation products)", "setting": "[1]", "result": "No radioactive degradation products"},
      {"measurement": "stability (radioactive degradation products)", "setting": "[2]", "result": "No radioactive degradation products"},
      {"measurement": "non-specific binding in spleen tissue", "setting": "[3]; mouse spleen slices (Figure 1 B2), with 1 μM GW4058233", "result": "relatively high non-specific binding"},
      {"measurement": "binding to CB2 in autoradiography", "setting": "[3]; mouse spleen slices, 0.6 nM tracer, blocked by excess (1 μM) GW4058233", "result": "specific binding"},
      {"measurement": "non-specific binding in spleen tissue", "setting": "CB2 in rat spleen slices; rat spleen slices (Figure 1 A2), with 1 μM GW4058233", "result": "relatively high non-specific binding"},
      {"measurement": "binding to CB2 in autoradiography", "setting": "CB2 in rat spleen slices; rat spleen slices, 0.6 nM tracer, blocked by excess (1 μM) GW4058233", "result": "specific binding"},
      {"measurement": "plasma stability (radioactive degradation products)", "setting": "[4]", "result": "No radioactive degradation products"},
      {"measurement": "brain uptake", "setting": "[5]; healthy Wistar rat, i.v., PET, region of interest TAC analysis", "result": "low uptake"},
      {"measurement": "initial period of steadily increasing activity concentration in spleen, then slow washout", "setting": "[5]; male, Wistar, rat, in vivo, iv", "result": 8, "unit": "min p.i."},
      {"measurement": "time of radioactivity peak in liver", "setting": "[5]; male, Wistar, rat, in vivo, iv", "result": "around 4 min p.i."},
      {"measurement": "spleen uptake", "setting": "[5]; rat, in vivo, iv", "result": "high spleen uptake"},
      {"measurement": "percentage of parent tracer radioactivity in blood plasma", "setting": "[6]; 15 min", "result": 40, "unit": "%"},
      {"measurement": "percentage of parent tracer radioactivity in blood plasma", "setting": "[6]; 30 min", "result": 25, "unit": "%"},
      {"measurement": "number of radiometabolites in blood plasma (more hydrophilic than parent)", "setting": "[6]", "result": "two to three"}
    ]}
  ]
}
